According to patent US5965088A, “Method for providing rapid disinfection of contact lenses” (priority 1997, dated 1999):
Where two headings read alike, the source gives them in different places.

System: Serratia marcescens (ATCC 13880)
Assay: Antimicrobial efficacy (stand-alone log reduction), S. marcescens
Type: cell-based
Settings: for log reduction at 4 ppm / log reduction at 1 ppm / log reduction at 2 ppm / log reduction at 3 ppm / log reduction at 5 ppm / log reduction at 4 µg/mL: Serratia marcescens; for log reduction at 4 µg/mL: 4.0 ppm alexidine in ReNu MPS; for Log Reduction S. marcescens: PAPB 0.0
Method: This Example illustrates the microbiocidal efficacy of solutions according to the present invention. The antimicrobial efficacy of each of various compositions for the chemical disinfection of contact lenses was evaluated. Microbial challenge inoculums were prepared using Pseudomonas aeruginosa (ATCC 9027), Staphylococcus aureus (ATCC 6538), Serratia marcescens (ATCC 13880), Candida albicans (ATCC 10231), and Fusarium solani (ATCC 36031). The test organisms were cultured on appropriate agar and the cultures were harvested using sterile DPBST (Dulbecco's Phosphate Buffered Saline plus 0.05% w/v polysorbate 80) or a suitable diluent and transferred to a suitable vessel. Spore suspensions were filtered through sterile glass wool to remove hyphal fragments. Serratia marcescens, as appropriate, was filtered (eg., through a 1.2 μ filter) to clarify the suspension. After harvesting, the suspension was centrifuged at no more than 5000× g for a maximum of 30 minutes at 20-25° C. The supernatant was poured off and resuspended in DPBST or other suitable diluent. The suspension was centrifuged a second time, and resuspended in DPBST or other suitable diluent. All challenge bacterial and fungal cell suspensions were adjusted with DPBST or other suitable diluent to 1×10^7 -10^8 cfu/mL. The appropriate cell concentration may be estimated by measuring the turbidity of the suspension, for example using a spectrophotometer at a preselected wavelength, for example 490 nm. One tube was prepared containing a minimum of 10 mL of test solution per challenge organism. Each tube of the solution to be tested was inoculated with a suspension of the test organism sufficient to provide a final count of 1.0×10^5 -10^6 cfu/mL, the volume of the inoculum not exceeding 1% of the sample volume. Dispersion of the inoculum was ensured by vortexing the sample for at least 15 seconds. The inoculated product was stored at 10-25° C. Aliquots in the amount of 1.0 mL were taken of the inoculated product for determination of viable counts after certain time periods of disinfection. The time points for the bacteria were 25, 50, 75, and 100% of the minimum disinfection time. Yeast and mold were tested at an additional timepoint of at least 400% of the minimum disinfection time. The suspension was mixed well by vortexing vigorously for at least 5 second. The 1.0 mL aliquots removed at the specified time intervals were subjected to a suitable series of decimal dilutions in validated neutralizing media. The suspensions were mixed vigorously and incubated for a suitable period of time to allow for neutralization of the microbial agent. The viable count of organisms was determined in appropriate dilutions by preparation of triplicate plates of trypticase soy (TSA) agar for bacteria and Sabouraud dextrose agar (SDA) for mold and yeast. The bacterial recovery plates were incubated at 30-35° C. for 2-4 days. The yeast was incubated at 20-30° C. for 2-4 days and mold recovery plates at 20-25° C. for 3-7 days. The average number of colony forming units was determined on countable plates. Countable plates refer to 30-300 cfu/plates for bacteria and yeast, and 8 to 80 cfu/plate for mold except when colonies are observed only for the 10^0 or 10^-1 dilution plates. The microbial reduction was then calculated at the specified time points. […] Following inoculation in a validated neutralizing broth and incubation for an appropriate period of time, the inoculum control must be between 1.0×10^5 -1.0×10^6 cfu/mL
The solutions were evaluated based on the performance requirement referred to as the "Stand-Alone Procedure for Disinfecting Products" (hereafter the "stand-alone test") and is based on the Disinfection Efficacy Testing for contact lens care products under the Draft Premarket Notification (510(k)) Guidance Document For Contact Lens Care Products dated Apr. 1, 1996, prepared by the U.S. Food and Drug Administration, Division of Ophthalmic Devices. […]

CCCCC(CC)CNC(=N)NC(=N)NCCCCCCNC(=N)NC(=N)NCC(CC)CCCC.Cl.Cl (stereo not shown) [Alexidine.2HCl, 1,1 '-hexamethylenebis(5-(2-ethylhexyl)-biguanide) dihydrochloride]
log reduction at 4 ppm (ATCC13880, 2.5 min, 4.0 ppm, aged 18 months, Exp. 1, 2.5 min, read-out: Log Reduction): 0.5
log reduction at 4 ppm (ATCC13880, 2.5 min, 4.0 ppm, aged 18 months, Exp. 2, 2.5 min, read-out: Log Reduction): 0.8
log reduction at 4 ppm (ATCC13880, 2.5 min, 4.0 ppm, aged 18 months, Exp. 3, 2.5 min, read-out: Log Reduction): 0.8
log reduction at 4 ppm (ATCC13880, 5 min): 0.6
log reduction at 1 ppm (ATCC13880, 5 min, 1.0 ppm, read-out: Log Reduction at 5 Minutes): 0.5
log reduction at 2 ppm (ATCC13880, 5 min, 2.0 ppm, read-out: Log Reduction at 5 Minutes): 0.8
log reduction at 3 ppm (ATCC13880, 5 min, 3.0 ppm, read-out: Log Reduction at 5 Minutes): 1.1
log reduction at 4 ppm (ATCC13880, 5 min, 4.0 ppm, aged 18 months, Exp. 2, 5.0 min, read-out: Log Reduction): 2
log reduction at 4 ppm (ATCC13880, 5 min, 4.0 ppm, aged 18 months, Exp. 3, 5.0 min, read-out: Log Reduction): 2
log reduction at 4 ppm (ATCC13880, 5 min, 4.0 ppm, read-out: Log Reduction at 5 Minutes): 2
log reduction at 5 ppm (ATCC13880, 5 min, 5.0 ppm, read-out: Log Reduction at 5 Minutes): 2.9
log reduction at 4 ppm (ATCC13880, 0.125 h, 4.0 ppm, aged 18 months, Exp. 1, 7.5 min, read-out: Log Reduction): 0.9
log reduction at 4 ppm (ATCC13880, 0.125 h, 4.0 ppm, aged 18 months, Exp. 2, 7.5 min, read-out: Log Reduction): 2.8
log reduction at 4 ppm (ATCC13880, 0.125 h, 4.0 ppm, aged 18 months, Exp. 3, 7.5 min, read-out: Log Reduction): 2.2
log reduction at 4 ppm (ATCC13880, 10 min): 1.2
log reduction at 1 ppm (ATCC13880, 10 min, 1.0 ppm, read-out: Log Reduction at 10 Minutes): 0.7
log reduction at 2 ppm (ATCC13880, 10 min, 2.0 ppm, read-out: Log Reduction at 10 Minutes): 1.8
log reduction at 3 ppm (ATCC13880, 10 min, 3.0 ppm, read-out: Log Reduction at 10 Minutes): 2.6
log reduction at 4 ppm (ATCC13880, 10 min, 4.0 ppm, aged 18 months, Exp. 2, 10.0 min, read-out: Log Reduction): 2.8
log reduction at 4 ppm (ATCC13880, 10 min, 4.0 ppm, aged 18 months, Exp. 3, 10.0 min, read-out: Log Reduction): 2.2
log reduction at 4 ppm (ATCC13880, 10 min, 4.0 ppm, read-out: Log Reduction at 10 Minutes): > 4.8
log reduction at 5 ppm (ATCC13880, 10 min, 5.0 ppm, read-out: Log Reduction at 10 Minutes): > 4.8
log reduction at 4 ppm (ATCC13880, 0.25 h): 3
log reduction at 4 ppm (ATCC13880, 0.25 h, 4.0 ppm, Ex. 6, aged 19 months at 25 °C, 15 min, read-out: Log Reduction): 3.2
log reduction at 4 ppm (ATCC13880, 0.25 h, 4.0 ppm, Ex. 8, different batch aged 19 months at 25 °C, 15 min, read-out: Log Reduction): 2.5
log reduction at 4 ppm (ATCC13880, 0.5 h, 4.0 ppm, Ex. 6, aged 19 months at 25 °C, 30 min, read-out: Log Reduction): > 4.7
log reduction at 4 ppm (ATCC13880, 0.5 h, 4.0 ppm, Ex. 7, different lot aged 18 months, 30 min, read-out: Log Reduction): 4.7
log reduction at 4 ppm (ATCC13880, 0.5 h, 4.0 ppm, Ex. 8, different batch aged 19 months at 25 °C, 30 min, read-out: Log Reduction): 4.6
log reduction at 4 ppm (ATCC13880, 0.75 h, 4.0 ppm, Ex. 6, aged 19 months at 25 °C, 45 min, read-out: Log Reduction): > 4.7
log reduction at 4 ppm (ATCC13880, 0.75 h, 4.0 ppm, Ex. 7, different lot aged 18 months, 45 min, read-out: Log Reduction): > 4.8
log reduction at 4 ppm (ATCC13880, 0.75 h, 4.0 ppm, Ex. 8, different batch aged 19 months at 25 °C, 45 min, read-out: Log Reduction): > 4.7
log reduction at 1 ppm (ATCC13880, 1 h, 1 ppm, 1 hr, read-out: Log Reduction): 3.5
log reduction at 2 ppm (ATCC13880, 1 h, 2 ppm, 1 hr, read-out: Log Reduction): > 4.8
log reduction at 3 ppm (ATCC13880, 1 h, 3 ppm, 1 hr, read-out: Log Reduction): > 4.8
log reduction at 4 µg/mL (ATCC13880, 1 h, 1 hr): 3.7
log reduction at 4 ppm (ATCC13880, 1 h, 4 ppm, 1 hr, read-out: Log Reduction): > 4.8
log reduction at 4 ppm (ATCC13880, 1 h, 4.0 ppm, Ex. 6, aged 19 months at 25 °C, 60 min, read-out: Log Reduction): > 4.7
log reduction at 4 ppm (ATCC13880, 1 h, 4.0 ppm, Ex. 7, different lot aged 18 months, 60 min, read-out: Log Reduction): > 4.8
log reduction at 4 ppm (ATCC13880, 1 h, 4.0 ppm, Ex. 8, different batch aged 19 months at 25 °C, 60 min, read-out: Log Reduction): > 4.7
log reduction at 5 ppm (ATCC13880, 1 h, 5 ppm, 1 hr, read-out: Log Reduction): > 4.8
log reduction at 4 µg/mL (ATCC13880, 2 h, 2 hr): > 4.7
log reduction at 4 µg/mL (ATCC13880, 3 h, 3 hr): > 4.7
log reduction at 4 µg/mL (ATCC13880, 4 h, 4 hr): > 4.7
Log Reduction S. marcescens (alexidine 0.5 ppm, 15 min): 0.6 log
Log Reduction S. marcescens (alexidine 0.5 ppm, 30 min): 1.6 log
Log Reduction S. marcescens (alexidine 0.5 ppm, 60 min): 2.5 log
Log Reduction S. marcescens (alexidine 2.6 ppm, 15 min): 2.2 log
Log Reduction S. marcescens (alexidine 2.6 ppm, 30 min): > 4.3 log
Log Reduction S. marcescens (alexidine 2.6 ppm, 60 min): > 4.3 log
